Assay results published in PubChem BioAssay AID1259408 (Genetic Toxicology Data Bank (GENE-TOX), 2018).
Active and inactive are the calls of the source. How the calls were made is not given here.

System: GENE-TOX genotoxicity assays, various organisms and cells
Experiment: GENE-TOX mutagenicity studies
Settings: for call: Assay Type: In vivo carcinogenicity studies
[1] = Species/Cell Type: Salmonella typhimurium (one or more of the five standard strains: TA98, TA100, TA1535, TA1537, and TA1538), Assay Type: Histidine reverse gene mutation, Ames assay, Assay Code: SALT, Evaluation Type: Evaluation A (Pre-1980)
[2] = Species/Cell Type: Salmonella typhimurium (one or more of the five standard strains: TA98, TA100, TA1535, TA1537, and TA1538), Assay Type: Histidine reverse gene mutation, Ames assay, Assay Code: SAL+, Evaluation Type: Evaluation A (Pre-1980)
[3] = Species/Cell Type: Saccharomyces cerevisiae, Assay Type: Mitotic recombination or gene conversion, Assay Code: YEH-, Evaluation Type: Evaluation A (Pre-1980)
[4] = Species/Cell Type: Chinese hamster lung (V79) cells, Assay Type: Forward gene mutation at the HPRT or ouabain locus, Assay Code: V79+, Evaluation Type: Evaluation A (Pre-1980)
[5] = Species/Cell Type: Drosophila melanogaster, Assay Type: Sex-linked recessive lethal gene mutation, Assay Code: SRL+, Evaluation Type: Evaluation A (Pre-1980)
[6] = Species/Cell Type: Mouse prostate cells, Assay Type: Cell transformation, Assay Code: CTM+, Evaluation Type: Evaluation A (Pre-1980)
[7] = Species/Cell Type: Nonhuman, Assay Code: CCG+L, Evaluation Type: Evaluation A (Pre-1980)
[8] = Species/Cell Type: Drosophila melanogaster, Assay Type: Sex-linked recessive lethal gene mutation, Assay Code: SRLT, Evaluation Type: Evaluation A (Pre-1980)
[9] = Species/Cell Type: Salmonella typhimurium (one or more of the five standard strains: TA98, TA100, TA1535, TA1537, and TA1538), Assay Type: Histidine reverse gene mutation, Ames assay, Assay Code: SAL+*, Activation: With metabolic activation, Evaluation Type: Evaluation A (Pre-1980)
[10] = Species/Cell Type: Saccharomyces cerevisiae, Assay Type: Mitotic recombination or gene conversion, Assay Code: YEC-, Evaluation Type: Evaluation A (Pre-1980)
[11] = Species/Cell Type: Vicia faba, Assay Type: Chromosome aberrations, Assay Code: VIC+, Evaluation Type: Evaluation A (Pre-1980)

SMILES: O=C(O)[C@@H]1CCCN1[N+](=O)[O-]
- mutagenic call [1]: no conclusion

SMILES: CCCN1CCN(c2ccc([N+](=O)[O-])c3no[n+]([O-])c23)CC1
- mutagenic call [2]: active; positive

SMILES: COc1ccccc1-c1ccccc1
- mutagenic call [3]: inactive; negative
- mutagenic call (Species/Cell Type: Salmonella typhimurium (one or more of the five standard strains: TA98, TA100, TA1535, TA1537, and TA1538), Assay Type: Histidine reverse gene mutation, Ames assay, Assay Code: SAL-, Evaluation Type: Evaluation A (Pre-1980)): inactive; negative

SMILES: c1ccc2c(c1)-c1cc3ccccc3cc1[C@H]1O[C@@H]21
- mutagenic call [4]: active; positive
- mutagenic call [5]: active; positive
- mutagenic call (Species/Cell Type: Human diploid fibroblasts, Assay Type: Unscheduled DNA synthesis (UDS) in vitro, DNA effects, Assay Code: UDH+D, Dose Response: With dose response, Evaluation Type: Evaluation A (Pre-1980)): active; positive
- mutagenic call [6]: active; positive
- call [7]: active; positive
- mutagenic call (Species/Cell Type: Nonhuman, Assay Type: Sister-chromatid exchange (SCE) in vitro, Assay Code: SC2+, Evaluation Type: Evaluation B (Post-1980)): active; positive
- mutagenic call [2]: active; positive
- mutagenic call (Species/Cell Type: Syrian hamster embryo (SHE) cells, Assay Type: Cell transformation, clonal assay, Assay Code: CTC+, Evaluation Type: Evaluation A (Pre-1980)): active; positive

SMILES: O=C(OCC1=CCN2CC[C@@H](OC(=O)c3ccc(Cl)cc3)[C@@H]12)c1ccc(Cl)cc1
- mutagenic call (Species/Cell Type: Allium cepa, Assay Type: Chromosome aberrations, Assay Code: ALC+, Evaluation Type: Evaluation A (Pre-1980)): active; positive

SMILES: Nc1ncc2[nH]cnc2n1
- mutagenic call [8]: no conclusion
- mutagenic call (Species/Cell Type: Escherichia coli WP2 UVRA, Assay Type: Tryptophan reverse gene mutation, Assay Code: WPU+, Evaluation Type: Evaluation A (Pre-1980)): active; positive
- mutagenic call (Species/Cell Type: Mouse lymphoma (L5178Y) cells, Assay Type: Forward gene mutation at the thymidine kinase (TK) locus, chromosome aberrations, Assay Code: L51+, Evaluation Type: Evaluation A (Pre-1980)): active; positive
- mutagenic call (Species/Cell Type: Mouse, Sex: Female, Assay Type: Spot test, gene mutation, Assay Code: MST+, Evaluation Type: Evaluation A (Pre-1980)): active; positive
- mutagenic call (Species/Cell Type: Neurospora crassa, Assay Type: Forward gene mutation, Assay Code: NEF+, Evaluation Type: Evaluation A (Pre-1980)): active; positive
- call (Species/Cell Type: Nonhuman, Assay Code: CCGT, Evaluation Type: Evaluation A (Pre-1980)): no conclusion
- mutagenic call (Species/Cell Type: Saccharomyces cerevisiae, Assay Type: Forward gene mutation, Assay Code: YEF+, Evaluation Type: Evaluation A (Pre-1980)): active; positive

SMILES: c1cc2ccc3cc4c(c5ccc(c1)c2c35)CCC1OC41 (stereo unspecified)
- mutagenic call (Species/Cell Type: Chinese hamster lung (V79) cells, Assay Type: Forward gene mutation at the HPRT or ouabain locus, Assay Code: V79-, Evaluation Type: Evaluation A (Pre-1980)): inactive; negative
- mutagenic call [6]: active; positive
- mutagenic call [2]: active; positive

SMILES: C#C[C@]1(OC(C)=O)CC[C@H]2[C@@H]3CCC4=CC(=O)CC[C@@H]4[C@H]3CC[C@@]21C (tested in a mixture with another compound)
- mutagenic call (Species/Cell Type: Rodents, Sex: Male, Assay Type: Dominant lethal test, Assay Code: DLT-, Evaluation Type: Evaluation A (Pre-1980)): inactive; negative

SMILES: Oc1cccc2ncccc12
- mutagenic call [9]: active; positive

SMILES: C=CC(=O)OCC
- mutagenic call (Species/Cell Type: Mammalian polychromatic erythrocytes, Assay Type: Micronucleus test, chromosome aberrations, Assay Code: MNT+, Evaluation Type: Evaluation B (Post-1980)): active; positive

SMILES: CCCCN(CC(O)CC(=O)O)N=O (stereo unspecified)
- mutagenic call [1]: no conclusion

SMILES: CC1CN(N=O)CCN1N=O (stereo unspecified)
- mutagenic call [9]: active; positive

SMILES: CCN(CC)c1ccc2c(-c3ccc(S(=O)(=O)O)cc3S(=O)(=O)[O-])c3ccc(=[N+](CC)CC)cc-3oc2c1
- mutagenic call (Species/Cell Type: Bacillus subtilis (H17 vs M45), Assay Type: Rec-assay, spot test, DNA effects (bacterial DNA repair), Assay Code: REWT, Evaluation Type: Evaluation A (Pre-1980)): no conclusion
- mutagenic call (Species/Cell Type: Bacillus subtilis (H17 vs M45T), Assay Type: Rec-assay, spot test, DNA effects (bacterial DNA repair), Assay Code: REXT, Evaluation Type: Evaluation A (Pre-1980)): no conclusion

SMILES: CSCC[C@H](N)C(=O)O
- mutagenic call (Species/Cell Type: Mammalian polychromatic erythrocytes, Assay Type: Micronucleus test, chromosome aberrations, Assay Code: MNTT, Evaluation Type: Evaluation A (Pre-1980)): no conclusion
- mutagenic call (Species/Cell Type: Mouse, Sex: Male, Assay Type: Sperm morphology, Assay Code: SPI-, Evaluation Type: Evaluation A (Pre-1980)): inactive; negative
- mutagenic call (Species/Cell Type: Nonhuman, Assay Type: Sister-chromatid exchange (SCE) in vitro, Assay Code: SC2T, Evaluation Type: Evaluation B (Post-1980)): no conclusion

SMILES: CS(C)=O.CS(C)=O.CS(C)=O.CS(C)=O.[Cl][Ru][Cl]
- mutagenic call [2]: active; positive

SMILES: COP(=O)(OC)OC
- mutagenic call [5]: active; positive
- mutagenic call (Species/Cell Type: Escherichia coli polA (W3119 vs P3478), Assay Type: Rec-assay, DNA effects (bacterial DNA repair), Assay Code: RE1T, Evaluation Type: Evaluation A (Pre-1980)): no conclusion
- mutagenic call (Species/Cell Type: Human lymphocytes or leukocytes, Assay Type: Chromosome aberrations in vitro, Assay Code: CY7+D, Dose Response: With dose response, Evaluation Type: Evaluation A (Pre-1980)): active; positive
- mutagenic call (Species/Cell Type: Mammalian polychromatic erythrocytes, Assay Type: Micronucleus test, chromosome aberrations, Assay Code: MNT+, Evaluation Type: Evaluation A (Pre-1980)): active; positive
- mutagenic call (Species/Cell Type: Mouse, Sex: Male, Assay Type: Sperm morphology, Assay Code: SPI+, Evaluation Type: Evaluation A (Pre-1980)): active; positive
- call (Species/Cell Type: Nonhuman, Assay Code: CCG+, Evaluation Type: Evaluation A (Pre-1980)): active; positive
- mutagenic call (Species/Cell Type: Rodents, Sex: Male, Assay Type: Dominant lethal test, Assay Code: DLT+D, Dose Response: With dose response, Evaluation Type: Evaluation A (Pre-1980)): active; positive
- mutagenic call (Species/Cell Type: Tradescantia species, Assay Type: Gene mutation, Assay Code: TRM+D, Dose Response: With dose response, Evaluation Type: Evaluation A (Pre-1980)): active; positive

SMILES: O[C@H]1c2ccc3cc4ccccc4cc3c2[C@@H]2OC2[C@@H]1O (stereo partly specified)
- mutagenic call [4]: active; positive

SMILES: COC(=O)C[C@@H]1Cc2cc3c(-c4c(OC)cc(O)c5c(O)c6c(cc45)C[C@@H](CC(=O)OC)OC6=O)c(OC)cc(O)c3c(O)c2C(=O)O1
- mutagenic call [3]: inactive; negative
- mutagenic call [1]: no conclusion

SMILES: CCOS(=O)(=O)OCCOS(=O)(=O)OCC
- mutagenic call (Species/Cell Type: Schizosaccharomyces pombe, Assay Type: Reverse gene mutation, Assay Code: YEZ+, Evaluation Type: Evaluation A (Pre-1980)): active; positive

SMILES: NC(=O)N(CC(=O)O)N=O
- mutagenic call [1]: no conclusion

SMILES: CNc1ccc(Cl)cc1C(=O)c1ccccc1
- mutagenic call [1]: no conclusion

SMILES: CC(C)N1C(=O)c2ccccc2NS1(=O)=O
- mutagenic call [10]: inactive; negative

SMILES: O=c1cccc2cc(O)c(O)c(O)c2c1O
- mutagenic call (Species/Cell Type: Allium cepa, Assay Type: Chromosome aberrations, Assay Code: ALC-, Evaluation Type: Evaluation A (Pre-1980)): inactive; negative

SMILES: Cc1cc(O)c2c(c1O)C(=O)C13C(=C2O)C(=O)C2C(O)C1C1C(O)C3C(=O)C3=C(O)c4c(O)cc(C)c(O)c4C(=O)C321 (stereo unspecified)
- mutagenic call (Species/Cell Type: Bacillus subtilis (H17 vs M45), Assay Type: Rec-assay, spot test, DNA effects (bacterial DNA repair), Assay Code: REW+, Evaluation Type: Evaluation A (Pre-1980)): active; positive
- mutagenic call (Species/Cell Type: Human lymphocytes or leukocytes, Assay Type: Chromosome aberrations in vitro, Assay Code: CY7+, Evaluation Type: Evaluation A (Pre-1980)): active; positive
- call [7]: active; positive

SMILES: Oc1cccc2cccnc12
- mutagenic call (Species/Cell Type: Human lymphocytes, Assay Type: Sister-chromatid exchange (SCE) in vitro, Assay Code: SCL+, Evaluation Type: Evaluation B (Post-1980)): active; positive
- mutagenic call (Species/Cell Type: Human, Assay Type: Sister-chromatid exchange (SCE) in vitro, Assay Code: SC1+, Evaluation Type: Evaluation B (Post-1980)): active; positive
- mutagenic call (Species/Cell Type: Mammalian polychromatic erythrocytes, Assay Type: Micronucleus test, chromosome aberrations, Assay Code: MNTT, Evaluation Type: Evaluation B (Post-1980)): no conclusion
- mutagenic call (Species/Cell Type: Neurospora crassa, Assay Type: Aneuploidy, chromosome aberrations, Assay Code: NEN-, Evaluation Type: Evaluation A (Pre-1980)): inactive; negative
- call (Species/Cell Type: Nonhuman, Assay Code: CCG-, Evaluation Type: Evaluation A (Pre-1980)): inactive; negative
- mutagenic call [10]: inactive; negative
- mutagenic call [9]: active; positive
- mutagenic call [11]: active; positive

SMILES: COc1cc2c(c3oc(=O)c4c(c13)CCOC4=O)C1C=COC1O2 (stereo unspecified)
- mutagenic call (Species/Cell Type: Aspergillus nidulans, Assay Type: Forward gene mutation, Assay Code: ASF+*, Activation: With metabolic activation, Evaluation Type: Evaluation A (Pre-1980)): active; positive
- mutagenic call [8]: no conclusion
- mutagenic call (Species/Cell Type: Drosophila melanogaster, Sex: Male, Assay Type: Heritable translocation test, chromosome aberrations, Assay Code: DHTT, Evaluation Type: Evaluation A (Pre-1980)): no conclusion
- mutagenic call (Species/Cell Type: Human lymphocytes or leukocytes, Assay Type: Chromosome aberrations in vitro, Assay Code: CY7T, Evaluation Type: Evaluation A (Pre-1980)): no conclusion
- mutagenic call [11]: active; positive
